ChEMBL document CHEMBL1136903, “Spiroimidazolidinone NPC1L1 inhibitors. 1: Discovery by 3D-similarity-based virtual screening” (Bioorg Med Chem Lett, 2009)

Legend:
[1] = Displacement of [35S](2S,3S,4S,5R,6S)-6-(4-((2S,3R)-3-((S)-3-(4-fluorophenyl)-3-hydroxypropyl)-1-(4-(3-(methylsulfonamido)prop-1-ynyl)phenyl)-4-oxoazetidin-2-yl)phenoxy)-3,4,5-trihydroxytetrahydro-2H-pyran-2-carboxylic acid from NPC1L1 in hamster enterocyte brush border membrane; parameters: species or system Cricetinae
[2] = Displacement of [35S](2S,3S,4S,5R,6S)-6-(4-((2S,3R)-3-((S)-3-(4-fluorophenyl)-3-hydroxypropyl)-1-(4-(3-(methylsulfonamido)prop-1-ynyl)phenyl)-4-oxoazetidin-2-yl)phenoxy)-3,4,5-trihydroxytetrahydro-2H-pyran-2-carboxylic acid from NPC1L1 in guinea pig enterocyte brush border membrane; parameters: species or system Cavia porcellus
[3] = biological target: T1, Niemann-Pick C1-like 1 protein (Canis lupus familiaris, UniProt A0MJA4); experiment: Displacement of [35S](2S,3S,4S,5R,6S)-6-(4-((2S,3R)-3-((S)-3-(4-fluorophenyl)-3-hydroxypropyl)-1-(4-(3-(methylsulfonamido)prop-1-ynyl)phenyl)-4-oxoazetidin-2-yl)phenoxy)-3,4,5-trihydroxytetrahydro-2H-pyran-2-carboxylic acid from NPC1L1 in dog enterocyte brush border membrane
T1 sequence (A0MJA4 whole entry): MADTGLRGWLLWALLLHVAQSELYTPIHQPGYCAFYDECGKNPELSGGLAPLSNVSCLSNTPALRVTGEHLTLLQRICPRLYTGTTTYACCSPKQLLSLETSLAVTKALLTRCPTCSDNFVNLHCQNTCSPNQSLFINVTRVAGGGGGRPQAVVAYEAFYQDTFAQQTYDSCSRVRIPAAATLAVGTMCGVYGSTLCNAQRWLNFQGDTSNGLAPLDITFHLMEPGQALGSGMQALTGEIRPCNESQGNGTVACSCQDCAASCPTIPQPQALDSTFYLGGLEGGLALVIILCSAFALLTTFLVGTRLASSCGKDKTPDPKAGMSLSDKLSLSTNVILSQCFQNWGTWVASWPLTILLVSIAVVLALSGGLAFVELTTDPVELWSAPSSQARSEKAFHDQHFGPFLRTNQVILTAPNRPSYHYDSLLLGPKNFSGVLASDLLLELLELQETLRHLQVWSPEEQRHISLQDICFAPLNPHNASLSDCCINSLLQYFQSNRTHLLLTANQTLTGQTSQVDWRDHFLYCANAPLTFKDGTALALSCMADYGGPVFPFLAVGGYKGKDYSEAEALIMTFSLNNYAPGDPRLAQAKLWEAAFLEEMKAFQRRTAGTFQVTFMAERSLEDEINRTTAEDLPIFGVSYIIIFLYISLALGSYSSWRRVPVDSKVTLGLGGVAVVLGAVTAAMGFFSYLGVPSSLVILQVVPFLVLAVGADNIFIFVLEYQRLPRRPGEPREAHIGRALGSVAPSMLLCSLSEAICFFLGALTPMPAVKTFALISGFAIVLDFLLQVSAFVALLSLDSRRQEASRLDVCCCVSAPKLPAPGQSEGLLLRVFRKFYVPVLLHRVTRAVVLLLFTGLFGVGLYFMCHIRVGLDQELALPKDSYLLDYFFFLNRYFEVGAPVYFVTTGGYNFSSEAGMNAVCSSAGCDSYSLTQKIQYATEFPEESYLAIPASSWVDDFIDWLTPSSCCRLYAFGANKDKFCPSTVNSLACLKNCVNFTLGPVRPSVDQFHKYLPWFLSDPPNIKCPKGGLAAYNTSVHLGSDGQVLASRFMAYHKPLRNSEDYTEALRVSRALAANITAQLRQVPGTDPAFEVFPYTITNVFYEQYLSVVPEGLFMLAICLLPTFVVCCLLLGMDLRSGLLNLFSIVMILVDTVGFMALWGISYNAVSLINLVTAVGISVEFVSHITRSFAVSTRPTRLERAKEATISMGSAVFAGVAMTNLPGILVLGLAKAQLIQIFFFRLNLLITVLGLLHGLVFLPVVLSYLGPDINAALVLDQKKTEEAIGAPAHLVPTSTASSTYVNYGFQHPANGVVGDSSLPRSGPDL

IC50 [1] [µM]	IC50 [2] [µM]	IC50 [3] [µM]	Structure (SMILES)
0.022	0.071	0.008	CS(=O)(=O)NCC#CN1C(=O)[C@H](CC[C@H](O)c2ccc(F)cc2)[C@H]1c1ccc(O[C@@H]2O[C@H](C(=O)O)[C@@H](O)[C@H](O)[C@H]2O)cc1
0.65	3.3	0.06	O=C(O)[C@H]1O[C@@H](Oc2ccc([C@@H]3[C@@H](CC[C@H](O)c4ccc(F)cc4)C(=O)N3c3ccc(F)cc3)cc2)[C@H](O)[C@@H](O)[C@@H]1O
62	118	> 500	O=C([C@@H]1C[C@@H](c2ccccc2)CN1C(=O)c1ccccc1)N1CCC2(C=Cc3ccccc32)CC1
41	470	170	CC(C)(C)c1ccc(C(=O)N2CCC3(CC2)C(=O)N(CC(=O)N2CCCCC2)CN3c2ccccc2)cc1
